Measurements reported in the supplement of paper PMC10307832.

Columns and labels:
Assay in all cases: relative viability (nuclei count vs DMSO), 5 days (fraction); higher = more cells survive
[1] = system: NCI-H2126
Outline: (§1)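 Lung cancer cell lines were pin-tool dosed in 1536-well plates on the day after seeding, with either a lone drug or a fixed anchor-drug dose plus five library-drug doses (not always all listed) in √10 steps. Nuclei were counted on 4× images after 5 days. Relative viability is the ratio of treated-well to vehicle-well nuclei counts, with each value a median of duplicate plates.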

[2] = system: UMC-11
Outline: as §1

[3] = system: COR-L 105
Outline: as §1

[4] = system: NCI-H1755
Outline: as §1

[5] = system: NCI-H1975
Outline: as §1

[6] = system: NCI-H1993
Outline: as §1

[7] = system: NCI-H1666
Outline: as §1

[8] = system: NCI-H3122
Outline: as §1

[9] = system: ABC-1
Outline: as §1

[10] = system: NCI-H2023
Outline: as §1

[11] = system: HCC-78
Outline: as §1

[12] = system: HOP-62
Outline: as §1

[13] = system: NCI-H2085
Outline: as §1

[14] = system: NCI-H322M
Outline: as §1

[15] = system: LXF-289
Outline: as §1

[16] = system: ChaGo-K-1
Outline: as §1

[17] = system: HCC-15
Outline: as §1

[18] = system: NCI-H1915
Outline: as §1

[19] = system: NCI-H358
Outline: as §1

[20] = system: NCI-H441
Outline: as §1

[21] = system: EMC-BAC-2
Outline: as §1

[22] = system: EPLC-272H
Outline: as §1

[23] = system: NCI-H522
Outline: as §1

How did the relative viability ([1]; first compound 0.04 µM) turn out when `Clc1ccc(Nc2nnc(Cc3ccncc3)c3ccccc23)cc1` [Vatalanib] + Nc1ncn([C@H]2C[C@H](O)[C@@H](CO)O2)c(=O)n1 [Decitabine] (partner 2 µM) was run?
The relative viability was 0.514.

What about the relative viability ([1]; first compound 0.1265 µM) of the same compound?
The relative viability was 0.534.

And the relative viability ([1]; first compound 0.4 µM)?
The relative viability was 0.594.

What about the relative viability ([1]; first compound 1.265 µM) of the same compound?
Its relative viability is 0.565.

What about the relative viability ([1]; first compound 4 µM) of the same compound?
The relative viability was 0.634.

And the relative viability ([2]; first compound 0.04 µM)?
The relative viability was 1.08.

And the relative viability ([2]; first compound 0.1265 µM)?
The relative viability was 0.624.

And the relative viability ([2]; first compound 0.4 µM)?
The relative viability was 0.462.

What about the relative viability ([2]; first compound 1.265 µM) of the same compound?
Its relative viability is 0.563.

And the relative viability ([2]; first compound 4 µM)?
The relative viability was 0.619.

What about the relative viability ([3]; first compound 0.04 µM) of the same compound?
Its relative viability is 0.722.

What about the relative viability ([3]; first compound 0.1265 µM) of the same compound?
Its relative viability is 0.706.

And the relative viability ([3]; first compound 0.4 µM)?
The relative viability was 0.796.

What about the relative viability ([3]; first compound 1.265 µM) of the same compound?
The relative viability was 0.681.

What about the relative viability ([3]; first compound 4 µM) of the same compound?
The relative viability was 0.714.

What about the relative viability ([4]; first compound 0.04 µM) of the same compound?
The relative viability was 0.691.

What about the relative viability ([4]; first compound 0.1265 µM) of the same compound?
The relative viability was 0.76.

What about the relative viability ([4]; first compound 0.4 µM) of the same compound?
The relative viability was 0.745.

And the relative viability ([4]; first compound 1.265 µM)?
Its relative viability is 0.707.

And the relative viability ([4]; first compound 4 µM)?
The relative viability was 0.728.

What about the relative viability ([5]; first compound 0.04 µM) of the same compound?
The relative viability was 0.423.

What about the relative viability ([5]; first compound 0.1265 µM) of the same compound?
The relative viability was 0.378.

And the relative viability ([5]; first compound 0.4 µM)?
The relative viability was 0.401.

What about the relative viability ([5]; first compound 1.265 µM) of the same compound?
The relative viability was 0.391.

What about the relative viability ([5]; first compound 4 µM) of the same compound?
Its relative viability is 0.397.

What about the relative viability ([6]; first compound 0.04 µM) of the same compound?
The relative viability was 0.57.

And the relative viability ([6]; first compound 0.1265 µM)?
Its relative viability is 0.607.

And the relative viability ([6]; first compound 0.4 µM)?
The relative viability was 0.541.

What about the relative viability ([6]; first compound 1.265 µM) of the same compound?
Its relative viability is 0.488.

And the relative viability ([6]; first compound 4 µM)?
Its relative viability is 0.495.

And the relative viability ([7]; first compound 0.04 µM)?
The relative viability was 0.649.

What about the relative viability ([7]; first compound 0.1265 µM) of the same compound?
The relative viability was 0.755.

What about the relative viability ([7]; first compound 0.4 µM) of the same compound?
The relative viability was 0.593.

What about the relative viability ([7]; first compound 1.265 µM) of the same compound?
Its relative viability is 0.672.

What about the relative viability ([7]; first compound 4 µM) of the same compound?
The relative viability was 0.785.

What about the relative viability ([8]; first compound 0.04 µM) of the same compound?
The relative viability was 0.411.

And the relative viability ([8]; first compound 0.1265 µM)?
The relative viability was 0.432.

And the relative viability ([8]; first compound 0.4 µM)?
The relative viability was 0.406.

And the relative viability ([8]; first compound 1.265 µM)?
The relative viability was 0.438.

And the relative viability ([8]; first compound 4 µM)?
The relative viability was 0.457.

And the relative viability ([9]; first compound 0.04 µM)?
Its relative viability is 1.02.

And the relative viability ([9]; first compound 0.1265 µM)?
The relative viability was 0.79.

What about the relative viability ([9]; first compound 0.4 µM) of the same compound?
Its relative viability is 1.17.

And the relative viability ([9]; first compound 4 µM)?
Its relative viability is 1.22.

And the relative viability ([10]; first compound 0.04 µM)?
Its relative viability is 0.22.

What about the relative viability ([10]; first compound 0.1265 µM) of the same compound?
Its relative viability is 0.205.

And the relative viability ([10]; first compound 0.4 µM)?
The relative viability was 0.231.

What about the relative viability ([10]; first compound 1.265 µM) of the same compound?
Its relative viability is 0.221.

What about the relative viability ([10]; first compound 4 µM) of the same compound?
Its relative viability is 0.219.

And the relative viability ([11]; first compound 0.04 µM)?
Its relative viability is 0.744.

And the relative viability ([11]; first compound 0.1265 µM)?
Its relative viability is 0.723.

What about the relative viability ([11]; first compound 0.4 µM) of the same compound?
Its relative viability is 0.773.

And the relative viability ([11]; first compound 1.265 µM)?
Its relative viability is 0.719.

What about the relative viability ([11]; first compound 4 µM) of the same compound?
Its relative viability is 0.684.

What about the relative viability ([12]; first compound 0.04 µM) of the same compound?
Its relative viability is 0.183.

And the relative viability ([12]; first compound 0.1265 µM)?
The relative viability was 0.216.

And the relative viability ([12]; first compound 0.4 µM)?
The relative viability was 0.223.

And the relative viability ([12]; first compound 1.265 µM)?
The relative viability was 0.239.

What about the relative viability ([12]; first compound 4 µM) of the same compound?
Its relative viability is 0.205.

And the relative viability ([13]; first compound 0.04 µM)?
The relative viability was 0.556.

What about the relative viability ([13]; first compound 0.1265 µM) of the same compound?
Its relative viability is 0.552.

What about the relative viability ([13]; first compound 0.4 µM) of the same compound?
Its relative viability is 0.476.

What about the relative viability ([13]; first compound 1.265 µM) of the same compound?
Its relative viability is 0.52.

What about the relative viability ([13]; first compound 4 µM) of the same compound?
The relative viability was 0.527.

And the relative viability ([14]; first compound 0.04 µM)?
Its relative viability is 0.769.

What about the relative viability ([14]; first compound 0.1265 µM) of the same compound?
The relative viability was 0.687.

What about the relative viability ([14]; first compound 0.4 µM) of the same compound?
The relative viability was 0.786.

What about the relative viability ([14]; first compound 4 µM) of the same compound?
Its relative viability is 0.663.

What about the relative viability ([15]; first compound 0.04 µM) of the same compound?
Its relative viability is 0.368.

And the relative viability ([15]; first compound 0.1265 µM)?
Its relative viability is 0.38.

What about the relative viability ([15]; first compound 0.4 µM) of the same compound?
The relative viability was 0.445.

And the relative viability ([15]; first compound 1.265 µM)?
The relative viability was 0.361.

And the relative viability ([15]; first compound 4 µM)?
Its relative viability is 0.352.

And the relative viability ([16]; first compound 0.04 µM)?
Its relative viability is 0.494.

What about the relative viability ([16]; first compound 0.1265 µM) of the same compound?
The relative viability was 0.52.

And the relative viability ([16]; first compound 0.4 µM)?
Its relative viability is 0.533.

What about the relative viability ([16]; first compound 1.265 µM) of the same compound?
The relative viability was 0.522.

What about the relative viability ([16]; first compound 4 µM) of the same compound?
The relative viability was 0.527.

What about the relative viability ([17]; first compound 0.04 µM) of the same compound?
Its relative viability is 0.607.

What about the relative viability ([17]; first compound 0.1265 µM) of the same compound?
Its relative viability is 0.689.

And the relative viability ([17]; first compound 0.4 µM)?
Its relative viability is 0.716.

What about the relative viability ([17]; first compound 1.265 µM) of the same compound?
The relative viability was 0.627.

And the relative viability ([17]; first compound 4 µM)?
The relative viability was 0.665.

And the relative viability ([18]; first compound 0.04 µM)?
The relative viability was 0.251.

And the relative viability ([18]; first compound 0.1265 µM)?
The relative viability was 0.257.

And the relative viability ([18]; first compound 0.4 µM)?
The relative viability was 0.273.

What about the relative viability ([18]; first compound 1.265 µM) of the same compound?
The relative viability was 0.257.

What about the relative viability ([18]; first compound 4 µM) of the same compound?
The relative viability was 0.276.

And the relative viability ([19]; first compound 0.04 µM)?
Its relative viability is 0.23.

And the relative viability ([19]; first compound 0.1265 µM)?
The relative viability was 0.204.

And the relative viability ([19]; first compound 0.4 µM)?
Its relative viability is 0.246.

And the relative viability ([19]; first compound 1.265 µM)?
Its relative viability is 0.21.

And the relative viability ([19]; first compound 4 µM)?
Its relative viability is 0.234.

And the relative viability ([20]; first compound 0.04 µM)?
The relative viability was 0.237.

And the relative viability ([20]; first compound 0.1265 µM)?
Its relative viability is 0.212.

And the relative viability ([20]; first compound 0.4 µM)?
The relative viability was 0.206.

And the relative viability ([20]; first compound 1.265 µM)?
Its relative viability is 0.228.

And the relative viability ([20]; first compound 4 µM)?
Its relative viability is 0.242.

And the relative viability ([21]; first compound 0.04 µM)?
The relative viability was 0.984.

And the relative viability ([21]; first compound 0.1265 µM)?
The relative viability was 0.952.

And the relative viability ([21]; first compound 0.4 µM)?
The relative viability was 0.983.

What about the relative viability ([21]; first compound 4 µM) of the same compound?
Its relative viability is 0.956.

And the relative viability ([22]; first compound 0.04 µM)?
Its relative viability is 0.357.

What about the relative viability ([22]; first compound 0.1265 µM) of the same compound?
Its relative viability is 0.342.

What about the relative viability ([22]; first compound 0.4 µM) of the same compound?
The relative viability was 0.35.

And the relative viability ([22]; first compound 1.265 µM)?
The relative viability was 0.356.

What about the relative viability ([22]; first compound 4 µM) of the same compound?
The relative viability was 0.378.

What about the relative viability ([23]; first compound 0.04 µM) of the same compound?
Its relative viability is 0.711.

What about the relative viability ([23]; first compound 0.1265 µM) of the same compound?
Its relative viability is 0.685.

And the relative viability ([23]; first compound 0.4 µM)?
The relative viability was 0.698.

And the relative viability ([23]; first compound 1.265 µM)?
The relative viability was 0.696.

And the relative viability ([23]; first compound 4 µM)?
Its relative viability is 0.596.
